According to patent US4499084A, “Ara-A Antiviral composition and method of administering the same” (priority 1983, dated 1985):
≈ marks a conversion by molar mass, not a printed value. Like-named read-outs stand apart in the source and are kept apart here.

Columns and labels:
[1] = tested on: DNA viruses; conditions: in vitro and in vivo (animal models or man); cited from earlier work
[2] = tested on: mice; conditions: cited from earlier work
[3] = tested on: man; conditions: cited from earlier work
[4] = tested on: Epstein-Barr (E-B) virus; conditions: in vitro and in vivo (animal models or man); cited from earlier work
[5] = tested on: oral or genital herpes simplex virus disease; conditions: cited from earlier work
[6] = tested on: DNA polymerase; conditions: cited from earlier work
[7] = tested on: cytomegalovirus; conditions: in vitro and in vivo (animal models or man); cited from earlier work
[8] = tested on: vaccinia virus; conditions: in vitro and in vivo (animal models or man); cited from earlier work
[9] = cited from earlier work
[10] = tested on: varicella-zoster virus; conditions: in vitro and in vivo (animal models or man); cited from earlier work
[11] = solubility; type: physicochemical; conditions: organic solvent or mixture; DMSO solvent system; read-out: concentration achieved using DMSO as the solvent system
Experimental: By using DMSO as the solvent system, it is possible to achieve a concentration of 10 mg/ml or greater. DMSO transports the ara-A directly into the virus infected cell where active viral replication is occurring. The drug interfers with viral DNA synthesis causing inhibition of viral maturation.
DMSO serves two purposes in enhancing the therapeutic action of ara-A. First, DMSO allows a concentration of ara-A that is more than 20 times greater than can be achieved with water alone. […] It is this percutaneous property of DMSO that is apparently responsible for the extraordinary effectiveness of this medication.

[12] = tested on: herpes simplex virus; conditions: cited from earlier work
[13] = type: physicochemical
Text: There are no special procedures involved in the preparation of the antiviral composition of the present invention. The demineralized water and DMSO can be mixed and the ara-A (and benzocaine if used) dissolved in the DMSO and water solution. The ara-A can be added to the pure DMSO, and water added last. When water and DMSO are mixed, the solution becomes warm because there is a positive heat of solution. […] Ara-A can be recovered from the DMSO and water solution virtually 100 percent as unchanged ara-A.

[14] = tested on: rats; conditions: cited from earlier work
[15] = tested on: man; test: toxicity and side effects in man; type: in vivo; conditions: average 150 pound man; converted from oral LD50 in rats and mice
Experimental: Regarding toxicity or other side effects on the patient, extensive pharmacology and toxicity studies ara-A have been carried out in animals and in man. […] This dose level indicates a low order of toxicity to a single parenteral dose. The acute oral LD50 in both rats and mice is greater than 5000 mg/kg. This amount would be equivalent to more than […] in an average 150 pound person. […] In the form used in the present invention and with treatment by topical application, it is highly unlikely that any toxic side effects of ara-A would be observed.

[16] = tested on: DNA viruses, including herpes simplex; conditions: combined with dimethyl sulfoxide (DMSO); cited from earlier work
[17] = tested on: antiviral activity of ara-A; test: effect of benzocaine added to the medication on antiviral activity of ara-A; conditions: benzocaine in the medication
Text: The medication of the present invention has been prepared and used both ways.

[18] = tested on: patient; test: effect of benzocaine in DMSO on the patient; type: in vivo; conditions: administered in DMSO
[19] = tested on: skin; conditions: applied to the skin; cited from earlier work
[20] = tested on: animals and humans; conditions: cited from earlier work
[21] = tested on: interstitial spaces and cell walls; conditions: not told; cited from earlier work
[22] = tested on: skin; conditions: in vivo
Experimental: This rash, however, usually disappears shortly thereafter with no ill effects. Annals of the New York Academy of Sciences, […]. S. W. Jacob, E. E. Rosenhaum and D. C. Wood, Eds., Vol. 1 Dimethyl Sulfoxide 99, (marcel Depper, Inc., New York, N.Y. 1971); and Annals of the New York Academy of Sciences, Vol. 243 (1975). In the present invention DMSO is diluted to 70% with demineralized water before ara-A is added.

Which “activity against a broad spectrum of DNA viruses” value [1] does the source give for `Nc1ncnc2c1ncn2[C@@H]1O[C@H](CO)[C@@H](O)[C@@H]1O` [ara-A, adenine-9-beta-D-arabinofuranoside] here?
Its value is “active”.

And the “acute oral LD50” value [2]?
The value was “greater than 5000 mg/kg”.

And the “side effects of massive acute overdosage” value ([3]; intravenous form, massive acute overdosage)?
The value was “without any serious side effect”.

What about the “redness and irritation after topical application” value ([3]; topical application, some cases) of the same molecule?
The value was “redness and slight irritation”.

What about the “toxicity through topical application” value ([3]; topical application) of the same molecule?
Its value is “not possible to demonstrate toxicity through topical application”.

What about the “activity against Epstein-Barr virus” value [4] of the same molecule?
The value was “active”.

What about the “success in combating oral or genital herpes simplex virus disease in a clinical setting” value (from here on “success”) [5] of the same molecule?
Its value is “none of these antiviral agents have been successful”.

What about the “effectiveness against oral or genital herpes” value ([5]; ointment form (ocular herpes) or infusion for 12 to 24 hours (herpes encephalitis)) of the same molecule?
The value was “Neither of these treatments are effective against oral or genital herpes”.

And the “inhibition of DNA polymerase” value [6]?
Its value is “inhibits the enzyme DNA polymerase”.

What about the activity against cytomegalovirus [7] of the same molecule?
Its activity against cytomegalovirus is “active”.

And the “activity against vaccinia virus” value [8]?
Its value is “active”.

And the solubility in water ([9]; 25C)?
The solubility in water was 450 µg/mL (≈ 1.68 mM).

And the “solubility in water” value [9]?
Its value is “highly insoluble in water”.

What about the “activity against varicella-zoster virus” value [10] of the same molecule?
The value was “active”.

What about the solubility [11] of the same molecule?
Its solubility is at least 10000 µg/mL.

And the “antiviral activity against the herpes simplex virus” value [12]?
Its value is “effective antiviral agent against the herpes simplex virus”.

What about the “destruction of herpes simplex virus in a laboratory setting” value (“destruction of herpes simplex virus” below) [12] of the same molecule?
Its value is “will destroy the herpes simplex virus”.

And the “recovery of unchanged ara-A” value ([13]; from the DMSO and water solution)?
The value was about 100%.

What about the “chemical reaction between ara-A and DMSO” value ([13]; under the conditions of preparation) of the same molecule?
Its value is “no chemical reaction between ara-A and DMSO”.

And the “acute oral LD50” value [14]?
The value was “greater than 5000 mg/kg”.

And the “amount equivalent to the acute oral LD50 in an average 150 pound person” value [15]?
The value was “more than 750 grams”.

For `O=c1[nH]c(=O)n([C@H]2C[C@H](O)[C@@H](CO)O2)cc1I` [IdU, 5-iododexyuridine], which “clearing of skin lesions” value [16] is on record?
Its value is “purportedly cleared up skin lesions”.

And the prevention of recurrence [16]?
The prevention of recurrence was “prevent recurrence”.

What does the source list for `O=C(O)CP(=O)(O)O` [phosphonacetic acid]?
success in combating oral or genital herpes simplex virus disease in a clinical setting [5]: none of these antiviral agents have been successful; destruction of herpes simplex virus in a laboratory setting [12]: will destroy the herpes simplex virus

Which “effect of benzocaine on antiviral activity of ara-A” value [17] does the source give for `CCOC(=O)c1ccc(N)cc1` [benzocaine] here?
Its value is “does not impair the antiviral activity of ara-A”.

And the “deleterious effect of benzocaine on the patient” value [18]?
Its value is “Nor does the benzocaine appear to have any deleterious affect on the patient”.

With `NC(=O)c1ncn([C@@H]2O[C@H](CO)[C@@H](O)[C@H]2O)n1` [ribavirin] as the molecule, how does the “success” value [5] read?
Its value is “none of these antiviral agents have been successful”.

And the “destruction of herpes simplex virus” value [12]?
Its value is “will destroy the herpes simplex virus”.

For `O=CC[C@@H](O)[C@H](O)[C@H](O)CO` [2-deoxy-d-glucose], which “success” value [5] is on record?
The value was “none of these antiviral agents have been successful”.

What about the “destruction of herpes simplex virus” value [12] of the same molecule?
The value was “will destroy the herpes simplex virus”.

For `C[S+](C)[O-]` [DMSO, dimethyl sulfoxide], which “skin reaction to undiluted DMSO” value [19] is on record?
The value was “sometimes may cause an itching or burning sensation with redness or a rash”.

What about the “toxicity of DMSO” value [20] of the same molecule?
The value was “essentially nontoxic”.

What about the “permeation of interstitial spaces and cell walls” value [21] of the same molecule?
The value was “unique ability of permeating the interstitial spaces and cell walls”.

And the “skin irritation at 70% DMSO” value [22]?
Its value is “usually nonirritating to normal skin”.

What does the source list for `Nc1nc2c(ncn2COCCO)c(=O)[nH]1` [acyclovir]?
success in combating oral or genital herpes simplex virus disease in a clinical setting [5]: none of these antiviral agents have been successful; destruction of herpes simplex virus in a laboratory setting [12]: will destroy the herpes simplex virus
